Laboratory results from patent US6447748B1, “Benzamide compounds for cancer imaging and therapy” (Research Corporation Technologies, Inc., priority 1993, dated 2002).
Read-outs that look alike come from different tables or passages of the source.

Key:
[1] = target: sigma sites labeled by 4-[125I]PEMP in guinea pig brain membranes; format: binding; conditions: read-out: Ki against 4-[125I]PEMP
Procedure: Intact adherent cells were washed (2×1 mL) with 10 mM phosphate buffer (pH=7.2). […] Each data point represent an average of three values. The cells were incubated at 37° C. for 1 hr. and subsequently washed with phosphate buffer (10 mM; pH 7.2) (3×1 mL). The cells were then dissolved in 0.2 N NaOH (1.0 mL) and the activity counted on a Beckman (DP 5500) Gamma Counter. A similar procedure was repeated with 2-[^125I]BP with MCF-7, MDA-MB 231 and T47D breast cancer cells.
The affinity of compounds for sites labeled by 4-[^125I]PEMP was determined by homologous and heterologous in vitro competitive binding assays in intact MCF-7 breast cancer cells and guinea pig brain membranes labeled by 4-[^125I]PEMP. The assays were prepared according to the procedure described in Example 14.

[2] = tested on: Sigma-1 sites, MCF-7 breast adenocarcinoma
[3] = target: T1, sigma sites labeled by 4-[125I]BP in MCF-7 breast cancer cells (Homo sapiens, UniProt Q5BJF2); assay: Homologous and heterologous competition for 4-[125I]BP binding in intact MCF-7 cells; conditions: 37° C. for 1 hr., unit printed in b378 only, not in the table
T1 construct: Intact adherent cells were washed (2×1 mL) with 10 mM phosphate buffer; endogenous in cells; host or cells: intact adherent MCF-7 breast cancer cells

Sigma-2 = target: T2, Sigma-2 (Rattus norvegicus, UniProt Q5U3Y7); assay: Sigma-2 binding assay, rat liver membranes, [3H]DTG + dextrallorphan (Example 9); conditions: read-out: Ki SIGMA-2 RAT LIVER [3H]DTG + DEX; Table 2 of Example 9
T2 sequence (Q5U3Y7 1-176): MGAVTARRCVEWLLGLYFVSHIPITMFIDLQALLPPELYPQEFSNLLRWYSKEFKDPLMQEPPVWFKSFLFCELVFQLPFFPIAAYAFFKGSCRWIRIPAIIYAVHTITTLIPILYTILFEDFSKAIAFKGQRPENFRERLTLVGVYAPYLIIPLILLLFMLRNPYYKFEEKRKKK

DOPAMINE D-2 = target: T3, DOPAMINE D-2 (Rattus norvegicus, UniProt P61169); assay: Dopamine D-2 binding, rat brain, [3H]-(−)-sulpiride; conditions: Table 2 of Example 9
T3 construct: from tissue

PCP = PCP binding, rat brain, [3H]TCP; conditions: Table 2 of Example 9
[4] = target: MUSC (muscarinic receptors); format: binding; conditions: read-out: Ki MUSC RAT BRAIN [3H]QNB
[5] = target: Sigma-1 sites, T47D breast ductal carcinoma
[6] = for Biodistribution Blood / Biodistribution Bone / Biodistribution Brain / Biodistribution Gonads / Biodistribution Heart / Biodistribution Kidney / Biodistribution Liver / Biodistribution Lunq / Biodistribution Muscle / Biodistribution Spleen / Biodistribution Thyroid: Wistar male rats, average of four rats
Procedure: Male Wistar rats (200-230g), while under anesthesia, were injected intravenously with 0.1 ml of a saline solution containing 20% ethanol solution of 4-[^125I]BP (4-5 μCi). At 1, 4, 6 and 24 hr. after injection, blood samples were collected by cardiac puncture and the […] were sacrificed immediately thereafter by cardiectomy while under anesthesia. The organs of interest were subsequently excised, blotted with tissue paper, weighed, and the radioactivity was counted using a Packard automatic counter (autogamma 5650). The % injected dose/g (% ID/g) values were determined by comparison of tissue radioactivities with suitably diluted aliquots of the injected 4-[^125I]BP dose divided by the weight of the organ.

T1 sequence (Q5BJF2 whole entry): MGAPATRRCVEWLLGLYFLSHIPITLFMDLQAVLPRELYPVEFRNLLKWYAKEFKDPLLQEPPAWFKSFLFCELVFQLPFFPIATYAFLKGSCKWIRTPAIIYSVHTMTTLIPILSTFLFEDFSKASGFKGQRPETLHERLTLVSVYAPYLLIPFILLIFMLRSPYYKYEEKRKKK
T3 sequence (P61169 whole entry): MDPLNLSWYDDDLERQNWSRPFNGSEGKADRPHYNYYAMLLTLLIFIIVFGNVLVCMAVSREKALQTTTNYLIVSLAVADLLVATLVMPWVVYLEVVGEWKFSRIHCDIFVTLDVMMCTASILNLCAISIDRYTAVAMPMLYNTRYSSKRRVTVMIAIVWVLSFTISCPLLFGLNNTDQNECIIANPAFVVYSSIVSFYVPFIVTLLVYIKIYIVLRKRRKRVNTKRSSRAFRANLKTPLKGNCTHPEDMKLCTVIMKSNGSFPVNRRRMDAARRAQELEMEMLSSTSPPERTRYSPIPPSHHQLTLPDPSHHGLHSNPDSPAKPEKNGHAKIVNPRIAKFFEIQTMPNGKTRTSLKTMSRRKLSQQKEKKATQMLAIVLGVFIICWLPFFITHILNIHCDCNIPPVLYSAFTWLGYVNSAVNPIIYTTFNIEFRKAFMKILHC

CC(C)=CCN1CCC2(C)c3cc(O)ccc3CC1C2C (single isomer, unassigned; (+)) [(+)-Pentazocine]
Ki [1]: 0.0359 µM | specific binding to sigma-1 sites [2]: little or no specific binding

O=C(CCCN1CCC2(CC1)C(=O)NCN2c1ccccc1)c1ccc(F)cc1 [Spiperone]
Ki [3]: 0.247 ± 0.037 µM

CCCN1CCC[C@H](c2cccc(O)c2)C1 [(+)-PPP]
Ki [3]: > 1 µM

O=C(NC1CCN(Cc2ccccc2)CC1)c1ccc(I)cc1 [4-IBP, (N-Benzylpiperidin-4-yl)-4-iodobenzamide]
Ki (Sigma-2): 0.0252 ± 0.00128 µM | Ki (DOPAMINE D-2): 0.382 ± 0.039 µM | Ki (PCP): > 100 µM | Ki [4]: > 100 µM | Ki [3]: 0.0048 ± 0.002 µM

CC(C)=CCN1CC[C@]2(C)c3cc(O)ccc3C[C@H]1[C@H]2C [[^3H] (+)-pentazocine]
specific binding to sigma-1 sites [2]: No specific binding | Kd ([5]; read-out: Kd1 Sigma-1): 0.00662 µM | Kd ([5]; read-out: Kd4 Sigma-1): 0.261 µM

O=C(NC1CCN(Cc2ccccc2)CC1)c1ccc([125I])cc1 [4-[^125I]BP, ^125I-(N-Benzylpiperidin-4-yl)-4-iodobenzamide]
Biodistribution Blood ([6]; 1 hr.): 0.04 ± 0.00 % ID/g | Biodistribution Bone ([6]; 1 hr.): 0.24 ± 0.01 % ID/g | Biodistribution Brain ([6]; 1 hr.): 1.24 ± 0.13 % ID/g | Biodistribution Gonads ([6]; 1 hr.): 0.39 ± 0.03 % ID/g | Biodistribution Heart ([6]; 1 hr.): 0.75 ± 0.05 % ID/g | Biodistribution Kidney ([6]; 1 hr.): 2.10 ± 0.15 % ID/g | Biodistribution Liver ([6]; 1 hr.): 4.77 ± 0.13 % ID/g | Biodistribution Lunq ([6]; 1 hr.): 5.05 ± 0.26 % ID/g | Biodistribution Muscle ([6]; 1 hr.): 0.24 ± 0.02 % ID/g | Biodistribution Spleen ([6]; 1 hr.): 1.60 ± 0.10 % ID/g | Biodistribution Thyroid ([6]; 1 hr.): 0.07 ± 0.01 % ID/g | Biodistribution Blood ([6]; 4 hr.): 0.02 ± 0.00 % ID/g | Biodistribution Bone ([6]; 4 hr.): 0.24 ± 0.05 % ID/g | Biodistribution Brain ([6]; 4 hr.): 1.29 ± 0.05 % ID/g | Biodistribution Gonads ([6]; 4 hr.): 0.30 ± 0.02 % ID/g | Biodistribution Heart ([6]; 4 hr.): 0.74 ± 0.04 % ID/g | Biodistribution Kidney ([6]; 4 hr.): 2.05 ± 0.02 % ID/g | Biodistribution Liver ([6]; 4 hr.): 7.76 ± 0.36 % ID/g | Biodistribution Lunq ([6]; 4 hr.): 5.22 ± 0.78 % ID/g | Biodistribution Muscle ([6]; 4 hr.): 0.20 ± 0.02 % ID/g | Biodistribution Spleen ([6]; 4 hr.): 1.51 ± 0.19 % ID/g | Biodistribution Thyroid ([6]; 4 hr.): 0.12 ± 0.00 % ID/g | Biodistribution Blood ([6]; 6 hr.): 0.04 ± 0.00 % ID/g | Biodistribution Bone ([6]; 6 hr.): 0.44 ± 0.03 % ID/g | Biodistribution Brain ([6]; 6 hr.): 1.23 ± 0.08 % ID/g | Biodistribution Gonads ([6]; 6 hr.): 0.34 ± 0.01 % ID/g | Biodistribution Heart ([6]; 6 hr.): 0.75 ± 0.02 % ID/g | Biodistribution Kidney ([6]; 6 hr.): 2.10 ± 0.08 % ID/g | Biodistribution Liver ([6]; 6 hr.): 7.20 ± 0.40 % ID/g | Biodistribution Lunq ([6]; 6 hr.): 4.85 ± 0.17 % ID/g | Biodistribution Muscle ([6]; 6 hr.): 0.12 ± 0.02 % ID/g | Biodistribution Spleen ([6]; 6 hr.): 1.57 ± 0.12 % ID/g | Biodistribution Thyroid ([6]; 6 hr.): 0.23 ± 0.05 % ID/g | Biodistribution Blood ([6]; 24 hr.): 0.02 ± 0.00 % ID/g | Biodistribution Bone ([6]; 24 hr.): 0.47 ± 0.07 % ID/g | Biodistribution Brain ([6]; 24 hr.): 1.24 ± 0.06 % ID/g | Biodistribution Gonads ([6]; 24 hr.): 0.34 ± 0.01 % ID/g | Biodistribution Heart ([6]; 24 hr.): 0.65 ± 0.03 % ID/g | Biodistribution Kidney ([6]; 24 hr.): 1.54 ± 0.05 % ID/g | Biodistribution Liver ([6]; 24 hr.): 5.37 ± 0.53 % ID/g | Biodistribution Lunq ([6]; 24 hr.): 3.70 ± 0.38 % ID/g | Biodistribution Muscle ([6]; 24 hr.): 0.12 ± 0.01 % ID/g | Biodistribution Spleen ([6]; 24 hr.): 1.47 ± 0.28 % ID/g | Biodistribution Thyroid ([6]; 24 hr.): 0.29 ± 0.04 % ID/g | clearance from the blood pool ([6]; Wistar rats): cleared quickly | crossing of the blood brain barrier ([6]; Wistar rats, retained in the brain after 24 hours): crossed the blood brain barrier | in vivo dehalogenation (thyroid activity after 24 hours) ([6]; rat, in vivo): no in vivo dehalogenation
